Experiments:
[1] = system: MCF7; test: Cytotoxicity against human MCF7 cells after 48 hrs by Sulforhodamine B assay; format: functional
[2] = system: HCT-116; test: Cytotoxicity against human HCT116 cells after 48 hrs by Sulforhodamine B assay; format: functional
[3] = target: Histone deacetylase; test: Inhibition of HDAC in human HeLa cells using Fluor de Lys as substrate by fluorescence assay; format: cell-based
[4] = target: T1, Histone deacetylase (Homo sapiens) (UniProt Q13547+O15379+Q9UBN7+Q92769+Q9UQL6+Q8WUI4+Q9BY41+Q96DB2+P56524+Q9UKV0+Q969S8); settings: HeLa, at 10 µM
Description: Inhibition of HDAC in human HeLa cells using Fluor de Lys as substrate at 10 uM by fluorescence assay

[5] = target: T1, Histone deacetylase (Homo sapiens); settings: HeLa, at 1 µM
Description: Inhibition of HDAC in human HeLa cells using Fluor de Lys as substrate at 1 uM by fluorescence assay

IC50 [3]	inhibition [4]	inhibition [5]	SMILES	GI50 ([1]; Homo sapiens, MCF7, 48 h)	GI50 ([2]; Homo sapiens, HCT-116, 48 h)	GI50 [1]	GI50 [2]
0.298 µM	96.5%	62%	O=C(/C=C/c1ccc2c(c1)Cc1sc(Nc3cccnc3)nc1-2)NO	1.58 µM	2.43 µM		
	95.9%	7.71%	Cc1ccc(Nc2nc3c(s2)Cc2cc(/C=C/C(=O)NO)ccc2-3)cc1				
	93.9%	10.2%	O=C(/C=C/c1ccc2c(c1)Cc1sc(Nc3ccncc3)nc1-2)NO				
0.164 µM	97.2%	66.9%	O=C(/C=C/c1ccc2c(c1)Cc1sc(NCCN3CCOCC3)nc1-2)NO	2.06 µM	1.32 µM		
0.14 µM	97.4%	71.6%	COCCNc1nc2c(s1)Cc1cc(/C=C/C(=O)NO)ccc1-2	0.869 µM	0.535 µM		
			O=C(CCCCCCC(=O)Nc1ccccc1)NO [VORINOSTAT]			0.689 µM	0.878 µM
	90%	28.1%	Cc1cc(C)c(Nc2nc3c(s2)Cc2cc(/C=C/C(=O)NO)ccc2-3)c(C)c1				
	77.7%	25.5%	O=C(/C=C/c1ccc2c(c1)Cc1sc(Nc3ccccn3)nc1-2)NO				
0.214 µM	97.5%	61.3%	CC(C)Nc1nc2c(s1)Cc1cc(/C=C/C(=O)NO)ccc1-2	1.21 µM	2.1 µM		
	93.3%	52.7%	CCCNc1nc2c(s1)Cc1cc(/C=C/C(=O)NO)ccc1-2				
	95.3%	20.7%	O=C(/C=C/c1ccc2c(c1)Cc1sc(Nc3ccccc3)nc1-2)NO				
	95.3%	39.8%	CC(C)(C)Nc1nc2c(s1)Cc1cc(/C=C/C(=O)NO)ccc1-2				
	86.2%	10.7%	COc1ccc(CNc2nc3c(s2)Cc2cc(/C=C/C(=O)NO)ccc2-3)cc1				
	86.3%	22.9%	O=C(/C=C/c1ccc2c(c1)Cc1sc(Nc3cccc(C(F)(F)F)c3)nc1-2)NO				
	95.3%	35.8%	O=C(/C=C/c1ccc2c(c1)Cc1sc(Nc3ccc(Cl)cc3)nc1-2)NO				
0.157 µM	97%	71.7%	CN(C)c1nc2c(s1)Cc1cc(/C=C/C(=O)NO)ccc1-2	1.26 µM	1.61 µM		
	93.6%	24.8%	O=C(/C=C/c1ccc2c(c1)Cc1sc(NC3CCCCC3)nc1-2)NO				
			CNc1nc2c(s1)Cc1cc(/C=C/C(=O)NO)ccc1-2	1.39 µM	1.86 µM		
	95.5%	45.1%	COc1ccc(Nc2nc3c(s2)Cc2cc(/C=C/C(=O)NO)ccc2-3)cc1				
	92.3%	21.6%	O=C(/C=C/c1ccc2c(c1)Cc1sc(Nc3ccc(F)cc3F)nc1-2)NO				

— ChEMBL document CHEMBL2385000, “Design, synthesis and biological evaluation of indeno[1,2-d]thiazole derivatives as potent histone deacetylase inhibitors” (Bioorg Med Chem Lett, 2013)
